According to patent US5399543A, “3-[4-(phenylmethoxy)phenyl]-1-substituted-6-haloalkyl-uracil herbicides” (FMC Corporation, priority 1993, dated 1995):

Columns and labels:
[1] = tested on: Morningglory; assay: Preemergence herbicidal activity, morningglory; type: in vivo, Ipomea lacunosa or Ipomea hederacea; conditions: Ipomoea, pre-emergence, 0.3 kg/ha, after 17-21 days, read-out: Preemergence herbicidal activity (% control), Morningglory
Method: (§1) The 3-[4-(phenylmethoxy)phenyl]-1-substituted-6-haloalkyluracil herbicides of this invention were tested for pre- and postemergence herbicidal activity using a variety of crops and weeds. The test plants included soybean (Glycine max var. Williams), field corn (Zea mays var. Agway 425X), wheat (Triticum aestivum var. Wheaton), morningglory (Ipomea lacunosa or Ipomea hederacea), velvetleaf (Abutilon theophrasti), green foxtail (Setaria viridis), Johnsongrass (Sorghum halepense), blackgrass (Aloepecurus myosuroides), common chickweed (Stellaria media), and common cocklebur (Xanthium pensylvanicum).
(§2) For preemergence testing, two disposable fiber flats (8 cm×15 cm×25 cm) for each rate of application of each candidate herbicide were filled to an approximate depth of 6.5 cm with steam-sterilized sandy loam soil. The soil was leveled and impressed with a template to provide five evenly spaced furrows 13 cm long and 0.5 cm deep in each flat. Seeds of soybean, wheat, corn, green foxtail, and johnsongrass were planted in the furrows of the first flat, and seeds of velvetleaf, morningglory, common chickweed, cocklebur, and blackgrass were planted in the furrows of the second flat. The five-row template was employed to firmly press the seeds into place. A topping soil of equal portions of sand and sandy loam soil was placed uniformly on top of each flat to a depth of approximately 0.5 cm. Flats for postemergence testing were prepared in the same manner except that they were planted 8-12 days prior to the preemergence flats and were placed in a greenhouse and watered, thus allowing the seeds to germinate and the foliage to develop.
(§3) In both pre- and postemergence tests, a stock solution of the candidate herbicide was prepared by dissolving 0.27 g of the compound in 20 mL of water/acetone (50/50) containing 0.5% v/v sorbitan monolaurate. For an application rate of 3000 g/ha of herbicide a 10 mL portion of the stock solution was diluted with water/acetone (50/50) to 45 mL.
(§4) The preemergence flats were initially subjected to a light water spray. The four flats were placed two by two along a conveyor belt (i.e., the two preemergence followed by the two postemergence flats). The conveyor belt fed under a spray nozzle mounted about ten inches above the postemergent foliage. The preemergent flats were elevated on the belt so that the soil surface was at the same level below the spray nozzle as the foliage canopy of the postemergent plants. The spray of herbicidal solution was commenced and once stabilized, the flats were passed under the spray at a speed to receive a coverage equivalent of 1000 L/ha. At this coverage the application rates are those shown in the above table for the individual herbicidal solutions. The preemergence flats were watered immediately thereafter, placed in the greenhouse and watered regularly at the soil surface. The postemergence flats were immediately placed in the greenhouse and not watered until 24 hours after treatment with the test solution. Thereafter they were regularly watered at ground level. After 17-21 days the plants were examined and the phytotoxicity data were recorded.
(§5) Herbicidal activity data at selected application rates are given for various compounds of this invention in Table 2 and Table 3. The test compounds are identified by numbers which correspond to those in Table 1.
(§6) Phytotoxicity data were taken as percent control. Percent control was determined by a method similar to the 0 to 100 rating system disclosed in "Research Methods in Weed Science," 2nd ed., B. Truelove, Ed.; Southern Weed Science Society; Auburn University, Auburn, Ala., 1977.

[2] = tested on: Velvetleaf; assay: Postemergence herbicidal activity, velvetleaf; type: in vivo; conditions: Abutilon theophrasti, post-emergence, 0.3 kg/ha, after 17-21 days, read-out: Postemergence herbicidal activity (% control), Velvetleaf
Method: as §1, §2, §3, §4, §5, §6

[3] = tested on: Soybean; assay: Preemergence herbicidal activity, soybean; type: in vivo, Glycine max var. Williams; conditions: Glycine max, pre-emergence, 0.3 kg/ha, after 17-21 days, read-out: Preemergence herbicidal activity (% control), Soybean
Method: as §1, §2, §3, §4, §5, §6

[4] = tested on: Blackgrass; assay: Preemergence herbicidal activity, blackgrass; type: in vivo, Aloepecurus myosuroides; conditions: Alopecurus myosuroides, pre-emergence, 0.3 kg/ha, after 17-21 days, read-out: Preemergence herbicidal activity (% control), Blackgrass
Method: as §1, §2, §3, §4, §5, §6

[5] = tested on: Wheat; assay: Preemergence herbicidal activity, wheat; type: in vivo, Triticum aestivum var. Wheaton; conditions: Triticum aestivum, pre-emergence, 0.3 kg/ha, after 17-21 days, read-out: Preemergence herbicidal activity (% control), Wheat
Method: as §1, §2, §3, §4, §5, §6

[6] = tested on: Johnsongrass; assay: Preemergence herbicidal activity, johnsongrass; type: in vivo; conditions: Sorghum halepense, pre-emergence, 0.3 kg/ha, after 17-21 days, read-out: Preemergence herbicidal activity (% control), Johnsongrass
Method: as §1, §2, §3, §4, §5, §6

[7] = tested on: Corn; assay: Preemergence herbicidal activity, corn; type: in vivo, Zea mays var. Agway 425X; conditions: Zea mays, pre-emergence, 0.3 kg/ha, after 17-21 days, read-out: Preemergence herbicidal activity (% control), Corn
Method: as §1, §2, §3, §4, §5, §6

[8] = tested on: Cocklebur; assay: Postemergence herbicidal activity, cocklebur; type: in vivo, Xanthium pensylvanicum; conditions: Xanthium strumarium, post-emergence, 0.3 kg/ha, after 17-21 days, read-out: Postemergence herbicidal activity (% control), Cocklebur
Method: as §1, §2, §3, §4, §5, §6

[9] = tested on: Johnsongrass; assay: Postemergence herbicidal activity, johnsongrass; type: in vivo; conditions: Sorghum halepense, post-emergence, 0.3 kg/ha, after 17-21 days, read-out: Postemergence herbicidal activity (% control), Johnsongrass
Method: as §1, §2, §3, §4, §5, §6

[10] = tested on: Wheat; assay: Postemergence herbicidal activity, wheat; type: in vivo, Triticum aestivum var. Wheaton; conditions: Triticum aestivum, post-emergence, 0.3 kg/ha, after 17-21 days, read-out: Postemergence herbicidal activity (% control), Wheat
Method: as §1, §2, §3, §4, §5, §6

[11] = tested on: Soybean; assay: Postemergence herbicidal activity, soybean; type: in vivo, Glycine max var. Williams; conditions: Glycine max, post-emergence, 0.3 kg/ha, after 17-21 days, read-out: Postemergence herbicidal activity (% control), Soybean
Method: as §1, §2, §3, §4, §5, §6

[12] = tested on: Green foxtail; assay: Preemergence herbicidal activity, green foxtail; type: in vivo; conditions: Setaria viridis, pre-emergence, 0.3 kg/ha, after 17-21 days, read-out: Preemergence herbicidal activity (% control), Green foxtail
Method: as §1, §2, §3, §4, §5, §6

[13] = tested on: Chickweed; assay: Postemergence herbicidal activity, chickweed; type: in vivo; conditions: Stellaria media, post-emergence, 0.3 kg/ha, after 17-21 days, read-out: Postemergence herbicidal activity (% control), Chickweed
Method: as §1, §2, §3, §4, §5, §6

[14] = tested on: Corn; assay: Postemergence herbicidal activity, corn; type: in vivo, Zea mays var. Agway 425X; conditions: Zea mays, post-emergence, 0.3 kg/ha, after 17-21 days, read-out: Postemergence herbicidal activity (% control), Corn
Method: as §1, §2, §3, §4, §5, §6

[15] = tested on: Morningglory; assay: Postemergence herbicidal activity, morningglory; type: in vivo, Ipomea lacunosa or Ipomea hederacea; conditions: Ipomoea, post-emergence, 0.3 kg/ha, after 17-21 days, read-out: Postemergence herbicidal activity (% control), Morningglory
Method: as §1, §2, §3, §4, §5, §6

[16] = tested on: Velvetleaf; assay: Preemergence herbicidal activity, velvetleaf; type: in vivo; conditions: Abutilon theophrasti, pre-emergence, 0.3 kg/ha, after 17-21 days, read-out: Preemergence herbicidal activity (% control), Velvetleaf
Method: as §1, §2, §3, §4, §5, §6

[17] = tested on: Chickweed; assay: Preemergence herbicidal activity, chickweed; type: in vivo; conditions: Stellaria media, pre-emergence, 0.3 kg/ha, after 17-21 days, read-out: Preemergence herbicidal activity (% control), Chickweed
Method: as §1, §2, §3, §4, §5, §6

[18] = tested on: Cocklebur; assay: Preemergence herbicidal activity, cocklebur; type: in vivo, Xanthium pensylvanicum; conditions: Xanthium strumarium, pre-emergence, 0.3 kg/ha, after 17-21 days, read-out: Preemergence herbicidal activity (% control), Cocklebur
Method: as §1, §2, §3, §4, §5, §6

[19] = tested on: Blackgrass; assay: Postemergence herbicidal activity, blackgrass; type: in vivo, Aloepecurus myosuroides; conditions: Alopecurus myosuroides, post-emergence, 0.3 kg/ha, after 17-21 days, read-out: Postemergence herbicidal activity (% control), Blackgrass
Method: as §1, §2, §3, §4, §5, §6

[20] = tested on: Green foxtail; assay: Postemergence herbicidal activity, green foxtail; type: in vivo; conditions: Setaria viridis, post-emergence, 0.3 kg/ha, after 17-21 days, read-out: Postemergence herbicidal activity (% control), Green foxtail
Method: as §1, §2, §3, §4, §5, §6

Cc1cc(OCc2ccc(Cl)cc2)ccc1-n1c(=O)cc(C(F)(F)F)n(C)c1=O [Compound 13]
activity at 300 g/ha [1]: 60% | activity at 300 g/ha [2]: 100% | activity at 300 g/ha [3]: 40% | activity at 300 g/ha [4]: 30% | activity at 300 g/ha [5]: 0% | activity at 300 g/ha [6]: 90% | activity at 300 g/ha [7]: 30% | activity at 300 g/ha [8]: 90% | activity at 300 g/ha [9]: 20% | activity at 300 g/ha [10]: 0% | activity at 300 g/ha [11]: 30% | activity at 300 g/ha [12]: 100% | activity at 300 g/ha [13]: 30% | activity at 300 g/ha [14]: 40% | activity at 300 g/ha [15]: 100% | activity at 300 g/ha [16]: 100% | activity at 300 g/ha [17]: 10% | activity at 300 g/ha [18]: 0% | activity at 300 g/ha [19]: 20% | activity at 300 g/ha [20]: 80%

COc1ccccc1COc1ccc(-n2c(=O)cc(C(F)(F)F)n(C)c2=O)cc1 [Compound 40]
activity at 300 g/ha [1]: 100% | activity at 300 g/ha [2]: 100% | activity at 300 g/ha [3]: 50% | activity at 300 g/ha [4]: 30% | activity at 300 g/ha [5]: 20% | activity at 300 g/ha [6]: 100% | activity at 300 g/ha [7]: 75% | activity at 300 g/ha [8]: 100% | activity at 300 g/ha [9]: 90% | activity at 300 g/ha [10]: 20% | activity at 300 g/ha [11]: 90% | activity at 300 g/ha [12]: 100% | activity at 300 g/ha [13]: 15% | activity at 300 g/ha [14]: 50% | activity at 300 g/ha [15]: 90% | activity at 300 g/ha [16]: 100% | activity at 300 g/ha [17]: 80% | activity at 300 g/ha [18]: 20% | activity at 300 g/ha [19]: 10% | activity at 300 g/ha [20]: 100%

Cn1c(C(F)(F)F)cc(=O)n(-c2ccc(OCc3ccccc3)cc2)c1=O [Compound 1]
activity at 300 g/ha [1]: 100% | activity at 300 g/ha [2]: 100% | activity at 300 g/ha [3]: 75% | activity at 300 g/ha [4]: 10% | activity at 300 g/ha [5]: 10% | activity at 300 g/ha [6]: 75% | activity at 300 g/ha [7]: 60% | activity at 300 g/ha [8]: 80% | activity at 300 g/ha [9]: 60% | activity at 300 g/ha [10]: 0% | activity at 300 g/ha [11]: 80% | activity at 300 g/ha [12]: 100% | activity at 300 g/ha [13]: 95% | activity at 300 g/ha [14]: 30% | activity at 300 g/ha [15]: 95% | activity at 300 g/ha [16]: 100% | activity at 300 g/ha [17]: 90% | activity at 300 g/ha [18]: 75% | activity at 300 g/ha [19]: 10% | activity at 300 g/ha [20]: 90%

Cn1c(C(F)(F)F)cc(=O)n(-c2ccc(OCc3ccc(F)cc3)cc2F)c1=O [Compound 11]
activity at 300 g/ha [1]: 100% | activity at 300 g/ha [2]: 100% | activity at 300 g/ha [3]: 85% | activity at 300 g/ha [4]: 20% | activity at 300 g/ha [5]: 20% | activity at 300 g/ha [6]: 95% | activity at 300 g/ha [7]: 85% | activity at 300 g/ha [8]: 100% | activity at 300 g/ha [9]: 100% | activity at 300 g/ha [10]: 20% | activity at 300 g/ha [11]: 80% | activity at 300 g/ha [12]: 100% | activity at 300 g/ha [13]: 80% | activity at 300 g/ha [14]: 70% | activity at 300 g/ha [15]: 100% | activity at 300 g/ha [16]: 100% | activity at 300 g/ha [17]: 100% | activity at 300 g/ha [18]: 90% | activity at 300 g/ha [19]: 0% | activity at 300 g/ha [20]: 100%

Cn1c(C(F)(F)F)cc(=O)n(-c2ccc(OCc3cccc(Cl)c3Cl)cc2)c1=O [Compound 42]
activity at 300 g/ha [1]: 70% | activity at 300 g/ha [2]: 90% | activity at 300 g/ha [3]: 0% | activity at 300 g/ha [4]: 0% | activity at 300 g/ha [5]: 0% | activity at 300 g/ha [6]: 30% | activity at 300 g/ha [7]: 0% | activity at 300 g/ha [8]: 35% | activity at 300 g/ha [9]: 50% | activity at 300 g/ha [10]: 0% | activity at 300 g/ha [11]: 25% | activity at 300 g/ha [12]: 60% | activity at 300 g/ha [13]: 0% | activity at 300 g/ha [14]: 30% | activity at 300 g/ha [16]: 80% | activity at 300 g/ha [17]: 0% | activity at 300 g/ha [18]: 0% | activity at 300 g/ha [19]: 0% | activity at 300 g/ha [20]: 50%
